Among the data in US9434734B2, “Substituted pyrazoloquinazolinones and pyrroloquinazolinones as allosteric modulators of group II metabotropic glutamate receptors” (Domain Therapeutics, priority 2012, dated 2016) are melting point and IC50 values, retold here.

Data set [1] addresses T1, human mGluR2 (hmGluR2) transiently over-expressed in HEK-293 cells (Homo sapiens, UniProt Q14416).
T1 construct: expressed in transfected cells; host or cells: HEK-293 cells, transient co-transfection by electroporation
Nature of the data set: Human mGluR2 negative allosteric modulator evaluation using Ca++ functional assay (agonist and NAM activity). The data set is classed as cell-based. Particulars: hmGluR2 in HEK-293 cells, EC80 glutamate, Fluo4AM calcium readout; read-out: mGluR2 negative allosteric modulator activity IC50. How it is done:
Human mGluR2 Negative Allosteric Modulator Evaluation Using Ca^++ Functional Assay
Compounds of the present invention were tested successively for their agonist and negative allosteric modulator activities on human mGluR2 (hmGluR2) transiently over-expressed in HEK-293 cells. They exert agonist activity if they are able to activate mGluR2 by themselves, i.e., in absence of the endogenous agonist glutamate; and they exert negative allosteric modulator activity if they decrease the action of the endogenous agonist glutamate.
HEK-293 cells were maintained in Modified Eagle's Medium supplemented with 10% Foetal Calf Serum, 1% Penicillin/Streptomycin and 1% nonessential amino acids at 37° C./5% CO2.
Cells were plated after transfection onto polyornithine coated, clear bottom, black-walled, 96-well plates and cultured for 24 h.
Receptor activity was detected by changes in intracellular calcium measured using the fluorescent Ca^2+ sensitive dye, Fluo4AM (Molecular Probes).
The day of the assay, medium was aspirated and replaced during 3 hours by medium without serum supplemented with 1% Glutamax, 1% Penicillin/Streptomycin and 1% nonessential amino acids. Then, cells were washed with freshly prepared buffer B (HBSS 1× (PAA), Hepes 20 mM, MgSO4-7H2O 1 mM, Na2CO3 3.3 mM, CaCl2-2H2O 1.3 mM, 0.5% BSA, Probenecid 2.5 mM) and loaded at 37° C./5% CO2 for 1.5 hours with buffer B containing 1 μM Fluo4AM, 0.1 mg/mL Pluronic Acid, 7 μg/mL Glutamate Pyruvate Transaminase and 2 mM sodium pyruvate. Afterwards cells were washed twice with buffer B and 50 μL of this buffer were added to each well.
Agonist and negative allosteric modulator activities of compounds were consecutively evaluated on the same cells plate. […] Then, the cells were stimulated by an EC80 glutamate concentration and fluorescence was recorded for additional 60 s. EC80 glutamate concentration is the concentration giving 80% of the maximal glutamate response. Agonist and/or negative allosteric modulator activity(ies) were evaluated in comparison to basal signal or signal evoked by EC80 glutamate alone, respectively.
For potency determination, a dose-response test was performed using 8 concentrations of each compound of the invention. Dose-response curves were fitted using the sigmoidal dose-response (variable slope) analysis in GraphPad Prism program (Graph Pad Inc) and EC50 of agonist/IC50 of negative allosteric modulator activity was calculated. Dose-response experiments were all performed in duplicate, two times independently.

T1 sequence (Q14416 19-872): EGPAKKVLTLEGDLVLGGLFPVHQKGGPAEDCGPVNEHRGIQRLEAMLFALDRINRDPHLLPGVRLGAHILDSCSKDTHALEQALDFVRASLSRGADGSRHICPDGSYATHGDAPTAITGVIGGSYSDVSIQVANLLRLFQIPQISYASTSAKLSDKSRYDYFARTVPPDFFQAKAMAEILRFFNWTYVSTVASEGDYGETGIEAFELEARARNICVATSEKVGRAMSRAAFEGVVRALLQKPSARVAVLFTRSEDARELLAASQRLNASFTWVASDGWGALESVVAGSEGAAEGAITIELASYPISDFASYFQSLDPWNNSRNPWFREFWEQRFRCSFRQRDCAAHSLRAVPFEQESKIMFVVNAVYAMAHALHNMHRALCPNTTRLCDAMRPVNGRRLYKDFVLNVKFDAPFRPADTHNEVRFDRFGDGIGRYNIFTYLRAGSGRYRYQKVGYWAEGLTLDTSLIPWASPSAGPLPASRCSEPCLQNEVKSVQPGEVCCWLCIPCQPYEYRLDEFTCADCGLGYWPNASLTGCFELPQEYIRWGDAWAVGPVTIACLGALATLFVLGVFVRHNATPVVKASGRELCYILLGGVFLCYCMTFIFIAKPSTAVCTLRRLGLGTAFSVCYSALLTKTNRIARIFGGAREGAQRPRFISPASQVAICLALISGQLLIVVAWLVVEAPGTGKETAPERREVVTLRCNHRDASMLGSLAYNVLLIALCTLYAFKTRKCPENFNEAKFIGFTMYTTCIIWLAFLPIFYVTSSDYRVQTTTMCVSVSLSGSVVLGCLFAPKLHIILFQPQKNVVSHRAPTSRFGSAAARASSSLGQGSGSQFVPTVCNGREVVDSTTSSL

`Cn1c(=O)c2ccc(-c3c[nH]nc3C(F)(F)F)cc2n2nc(-c3ccccc3)cc12` [Example 19, 4-Methyl-2-phenyl-8-(3-trifluoromethyl-1H-pyrazol-4-yl)-4H-pyrazolo[1,5-a]quinazolin-5-one] returned a melting point above 250 °C. Also, the IC50 in data set [1] is below 1000 nM.
The like results for `Cn1c(=O)c2ccc(-c3cccc(C#N)c3)cc2n2nc(C3CCOCC3)cc12` [Example 88, 3-[4-Methyl-5-oxo-2-(tetrahydro-pyran-4-yl)-4,5-dihydro-pyrazolo[1,5-a]quinazolin-8-yl]-benzonitrile] were, in that order, 210 to 216 °C and below 1000 nM.
On to `CCCc1cc2n(C)c(=O)c3ccc(-c4ccc(N)nc4)cc3n2n1.Cl` [Example 50, 8-(6-Amino-pyridin-3-yl)-4-methyl-2-propyl-4H-pyrazolo[1,5-a]quinazolin-5-one], for which the melting point was above 250 °C. Besides, the IC50 in data set [1] was below 1000 nM.
The like results for `Cc1cc(-c2ccc3c(=O)n(C)c4cc(C5CCCC5)nn4c3c2)cc(C)n1.Cl` [Example 66, 2-Cyclopentyl-8-(2,6-dimethyl-pyridin-4-yl)-4-methyl-4H-pyrazolo[1,5-a]quinazolin-5-one] were, in that order, above 250 °C and below 1000 nM.
For `Cc1cc(-c2ccc3c(=O)n(C)c4cc(-c5ccccc5)nn4c3c2)cnc1N.Cl` [Example 26, 8-(6-Amino-5-methyl-pyridin-3-yl)-4-methyl-2-phenyl-4H-pyrazolo[1,5-a]quinazolin-5-one], in that order: 226 to 227 °C and below 1000 nM.
Regarding `Cc1nc(N)cnc1-c1ccc2c(=O)n(C)c3cc(-c4ccccc4)nn3c2c1.Cl` [Example 32, 8-(5-Amino-3-methyl-pyrazin-2-yl)-4-methyl-2-phenyl-4H-pyrazolo[1,5-a]quinazolin-5-one], the melting point is 188 to 189 °C. The half-maximal inhibitory concentration (IC50) in data set [1] is below 1000 nM.
`Cl.Cn1c(=O)c2ccc(-c3ccc(N)nc3)cc2n2nc(C3CCS(=O)(=O)CC3)cc12` [Example 84, 8-(6-Amino-pyridin-3-yl)-2-(1,1-dioxo-tetrahydro-2H-thiopyran-4-yl)-4-methyl-4H-pyrazolo[1,5-a]quinazolin-5-one] yielded a melting point above 250 °C. Further, the IC50 in data set [1] was below 1000 nM.
The compound `Cc1cc(-c2cc3n(C)c(=O)c4ccc(-c5c(C)n[nH]c5C)cc4n3n2)cc(C)n1.Cl` [Example 146, 8-(3,5-Dimethyl-1H-pyrazol-4-yl)-2-(2,6-dimethyl-pyridin-4-yl)-4-methyl-4H-pyrazolo[1,5-a]quinazolin-5-one] came in with a melting point above 250 °C. Also, the IC50 in data set [1] was below 1000 nM.
The like results for `CCCn1c(=O)c2ccc(-c3ccc(N)nc3)cc2n2nc(-c3ccccc3)cc12.Cl` [Example 44, 8-(6-Amino-pyridin-3-yl)-2-phenyl-4-propyl-4H-pyrazolo[1,5-a]quinazolin-5-one] were, in that order, above 250 °C and below 1000 nM.
Regarding `Cc1cc(-c2ccc3c(=O)n(CC(F)F)c4cc(C5CCOCC5)nn4c3c2)cc(C)n1.Cl` [Example 102, 4-(2,2-Difluoro-ethyl)-8-(2,6-dimethyl-pyridin-4-yl)-2-(tetrahydro-pyran-4-yl)-4H-pyrazolo[1,5-a]quinazolin-5-one], the melting point is above 250 °C. Also, the IC50 in data set [1] is below 1000 nM.
Regarding `Cl.Cn1c(=O)c2ccc(-c3ccc(N)nc3)cc2n2nc(C3CCCCC3)cc12` [Example 74, 8-(6-Amino-pyridin-3-yl)-2-cyclohexyl-4-methyl-4H-pyrazolo[1,5-a]quinazolin-5-one], the melting point fell in the range of 194 to 197 °C. In data set [1], the IC50 is below 1000 nM.
For the compound `Cc1[nH]ncc1-c1ccc2c(=O)n(C)c3cc(C4CCOCC4)nn3c2c1` [Example 92, 4-Methyl-8-(5-methyl-1H-pyrazol-4-yl)-2-(tetrahydro-pyran-4-yl)-4H-pyrazolo[1,5-a]quinazolin-5-one], the melting point was 223 to 229 °C. The 50% inhibitory concentration (IC50) in data set [1] is below 1000 nM.
The like results for `Cc1nc(N)ccc1-c1ccc2c(=O)n(C)c3cc(-c4ccccc4)nn3c2c1.Cl` [Example 25, 8-(6-Amino-2-methyl-pyridin-3-yl)-4-methyl-2-phenyl-4H-pyrazolo[1,5-a]quinazolin-5-one] were, in that order, 218 to 220 °C and below 1000 nM.
`Cc1cc(-c2cc3n(C)c(=O)c4ccc(-c5c[nH]nc5C)cc4n3n2)cc(C)n1.Cl` [Example 121, 2-(2,6-Dimethyl-pyridin-4-yl)-4-methyl-8-(3-methyl-1H-pyrazol-4-yl)-4H-pyrazolo[1,5-a]quinazolin-5-one] displayed a melting point above 250 °C. Besides, in data set [1], the IC50 was below 1000 nM.
In the case of `Cl.Cn1c(=O)c2ccc(-c3ccc(N)nn3)cc2n2nc(-c3ccccc3)cc12` [Example 29, 8-(6-Amino-pyridazin-3-yl)-4-methyl-2-phenyl-4H-pyrazolo[1,5-a]quinazolin-5-one], the melting point is above 250 °C. Moreover, the half-inhibitory concentration (IC50) in data set [1] is below 1000 nM.
The compound `Cc1cc(-c2cc3n(C)c(=O)c4ccc(-c5cnn(C)c5)cc4n3n2)cc(C)n1.Cl` [Example 122, 2-(2,6-Dimethyl-pyridin-4-yl)-4-methyl-8-(1-methyl-1H-pyrazol-4-yl)-4H-pyrazolo[1,5-a]quinazolin-5-one] registered a melting point above 250 °C. For the same compound, the 50% inhibitory concentration (IC50) in data set [1] was below 1000 nM.
`Cc1cc(-c2ccc3c(=O)n(C)c4cc(-c5ccccc5)cn4c3c2)cc(C)n1.Cl` [Example 111, 8-(2,6-Dimethyl-pyridin-4-yl)-4-methyl-2-phenyl-4H-pyrrolo[1,2-a]quinazolin-5-one] yielded a melting point above 250 °C. Moreover, the IC50 in data set [1] is below 1000 nM.
With `Cc1cc(-c2cc3n(C)c(=O)c4ccc(-c5ccccc5)cc4n3n2)cc(C)n1.Cl` [Example 115, 2-(2,6-Dimethyl-pyridin-4-yl)-4-methyl-8-phenyl-4H-pyrazolo[1,5-a]quinazolin-5-one], the melting point is above 250 °C. Further, the 50% inhibitory concentration (IC50) in data set [1] was below 1000 nM.
For `Cl.Cn1cc(-c2cc3n(C)c(=O)c4ccc(-c5ccncc5)cc4n3n2)cn1` [Example 129, 4-Methyl-2-(1-methyl-1H-pyrazol-4-yl)-8-pyridin-4-yl-4H-pyrazolo[1,5-a]quinazolin-5-one], in that order: above 250 °C and below 1000 nM.
As for `Cc1cc(-c2ccc3c(=O)n(C)c4cc(-c5cnn(C)c5)nn4c3c2)cc(C)n1.Cl` [Example 130, 8-(2,6-Dimethyl-pyridin-4-yl)-4-methyl-2-(1-methyl-1H-pyrazol-4-yl)-4H-pyrazolo[1,5-a]quinazolin-5-one], the melting point is above 250 °C. Further, the concentration for half-maximal inhibition (IC50) in data set [1] was below 1000 nM.
Take `Cn1cc(-c2ccc3c(=O)n(C)c4cc(-c5cccnc5)nn4c3c2)cn1` [Example 85, 4-Methyl-8-(1-methyl-1H-pyrazol-4-yl)-2-pyridin-3-yl-4H-pyrazolo[1,5-a]quinazolin-5-one]: the melting point was above 250 °C. The IC50 in data set [1] was below 1000 nM.
The like results for `Cl.Cn1c(=O)c2ccc(-c3ccc(N)nc3)cc2n2cc(-c3ccccc3)cc12` [Example 110, 8-(6-Amino-pyridin-3-yl)-4-methyl-2-phenyl-4H-pyrrolo[1,2-a]quinazolin-5-one] were, in that order, above 250 °C and below 1000 nM.

The term melting point denotes the temperature, or range, at which the solid turns liquid. The IC50 is the concentration that gives 50% inhibition.
